Literature values in PMC3694611 (Journal of natural products, 2012).

How the values were obtained:
[1] = tested on: Plasmodium falciparum; settings: in words; ref [1a]
[2] = in words; ref [ii]

Substance | activity against the malarial parasite Plasmodium falciparum [1] | anticancer potency [2]
Gallinamide A | moderately active | 
dolastatin-15 |  | exceedingly potent
